Test results: the supplement of paper PMC4862054

Experiments:
Conditions in all cases: incubation time: 72 h
BT-474 [1] = assay: normalised response (% of control), CellTox Green; higher = less cell death (100 = DMSO, 0 = benzethonium chloride kill control)
Method in brief: (§1)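 A 20 µl suspension of breast cancer cells was seeded into each well of 384-well plates containing compound at 5 concentrations in 10-fold steps over a compound-specific 10,000-fold range. After 72 h incubation, CellTox Green fluorescence (485/520 nm) was read first, and CellTiter-Glo luminescence was read after 10 min at room temperature. Each plate was normalised against 0.1 % DMSO (100) and a positive kill control (0), and each value is the normalised signal at one concentration.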

BT-549 [2] = assay: as above
Method in brief: as §1

CAL-120 [3] = assay: as above
Method in brief: as §1

CAL-148 [4] = assay: as above
Method in brief: as §1

CAL-51 [5] = assay: as above
Method in brief: as §1

CAL-85-1 [6] = assay: as above
Method in brief: as §1

DU-4475 [7] = assay: as above
Method in brief: as §1

HCC1143 [8] = assay: as above
Method in brief: as §1

HCC1599 [9] = assay: as above
Method in brief: as §1

HCC1937 [10] = assay: as above
Method in brief: as §1

HDQ-P1 [11] = assay: as above
Method in brief: as §1

MCF-10A [12] = assay: as above
Method in brief: as §1

MDA-MB-231 [13] = assay: as above
Method in brief: as §1

MDA-MB-436 [14] = assay: as above
Method in brief: as §1

MDA-MB-453 [15] = assay: as above
Method in brief: as §1

MDA-MB-468 [16] = assay: as above
Method in brief: as §1

MFM-223 [17] = assay: as above
Method in brief: as §1

BT-474 [18] = assay: normalised response (% of control), CellTiter-Glo; higher = more viable cells (100 = DMSO, 0 = benzethonium chloride kill control)
Method in brief: as §1

BT-549 [19] = assay: as above
Method in brief: as §1

CAL-120 [20] = assay: as above
Method in brief: as §1

CAL-148 [21] = assay: as above
Method in brief: as §1

CAL-51 [22] = assay: as above
Method in brief: as §1

CAL-85-1 [23] = assay: as above
Method in brief: as §1

DU-4475 [24] = assay: as above
Method in brief: as §1

HCC1143 [25] = assay: as above
Method in brief: as §1

HCC1599 [26] = assay: as above
Method in brief: as §1

HCC1937 [27] = assay: as above
Method in brief: as §1

HDQ-P1 [28] = assay: as above
Method in brief: as §1

Hs578T = assay: as above
Method in brief: as §1

MCF-10A [29] = assay: as above
Method in brief: as §1

MDA-MB-231 [30] = assay: as above
Method in brief: as §1

MDA-MB-436 [31] = assay: as above
Method in brief: as §1

MDA-MB-453 [32] = assay: as above
Method in brief: as §1

MDA-MB-468 [33] = assay: as above
Method in brief: as §1

MFM-223 [34] = assay: as above
Method in brief: as §1

SK-BR-3 = assay: as above
Method in brief: as §1

SMILES | normalised response (BT-474 [1]) | normalised response (BT-549 [2]) | normalised response (CAL-120 [3]) | normalised response (CAL-148 [4]) | normalised response (CAL-51 [5]) | normalised response (CAL-85-1 [6]) | normalised response (DU-4475 [7]) | normalised response (HCC1143 [8]) | normalised response (HCC1599 [9]) | normalised response (HCC1937 [10]) | normalised response (HDQ-P1 [11]) | normalised response (MCF-10A [12]) | normalised response (MDA-MB-231 [13]) | normalised response (MDA-MB-436 [14]) | normalised response (MDA-MB-453 [15]) | normalised response (MDA-MB-468 [16]) | normalised response (MFM-223 [17]) | normalised response (BT-474 [18]) | normalised response (BT-549 [19]) | normalised response (CAL-120 [20]) | normalised response (CAL-148 [21]) | normalised response (CAL-51 [22]) | normalised response (CAL-85-1 [23]) | normalised response (DU-4475 [24]) | normalised response (HCC1143 [25]) | normalised response (HCC1599 [26]) | normalised response (HCC1937 [27]) | normalised response (HDQ-P1 [28]) | normalised response (Hs578T) | normalised response (MCF-10A [29]) | normalised response (MDA-MB-231 [30]) | normalised response (MDA-MB-436 [31]) | normalised response (MDA-MB-453 [32]) | normalised response (MDA-MB-468 [33]) | normalised response (MFM-223 [34]) | normalised response (SK-BR-3)
Cc1c(C(=O)Nc2ccc(N3C[C@@H](C)O[C@@H](C)C3)nc2)cccc1-c1ccc(OC(F)(F)F)cc1 [Erismodegib] (1000 nM) | 103% | 136% | 99.7% | 110% | 97.5% | 104% | 97.6% | 110% | 103% | 74.5% | 99.7% | 107% | 72.4% | 94.7% | 101% | 111% | 101% | 81.7% | 90.5% | 96.5% | 98.5% | 66.1% | 93% | 98.9% | 89.8% | 101% | 97.9% | 91.7% | 101% | 85.6% | 94.2% | 84.6% | 79.2% | 93.7% | 84.9% | 81.7%
CO[C@H](C(=O)[C@@H](O)[C@@H](C)O)[C@@H]1Cc2cc3cc(O[C@H]4C[C@@H](O[C@@H]5C[C@@H](O)[C@H](O)[C@@H](C)O5)[C@H](O)[C@@H](C)O4)c(C)c(O)c3c(O)c2C(=O)[C@H]1O[C@H]1C[C@@H](O[C@@H]2C[C@@H](O)[C@@H](O[C@@H]3C[C@](C)(O)[C@H](O)[C@@H](C)O3)[C@@H](C)O2)[C@H](O)[C@@H](C)O1 [Plicamycin] (10 nM) | – | – | – | – | – | – | – | – | – | – | – | – | – | – | – | – | – | 108% | 104% | 101% | 116% | 74.9% | 103% | 107% | 103% | 117% | 97.7% | 96.4% | 105% | 114% | 103% | 101% | 118% | 109% | 108% | 111%
C[C@]12C=CC(=O)C=C1CC[C@@H]1[C@@H]2C(=O)C[C@@]2(C)[C@H]1CC[C@]2(O)C(=O)CO [Prednisone] (10 nM) | – | – | – | – | – | – | – | – | – | – | – | – | – | – | – | – | – | 103% | 98% | 104% | 108% | 118% | 99.9% | 107% | 101% | 96.9% | 95.8% | 96.3% | 96.7% | 109% | 98.7% | 101% | 118% | 98.4% | 104% | 123%
CO[C@H]1C[C@@H]2CC[C@@H](C)[C@@](O)(O2)C(=O)C(=O)N2CCCC[C@H]2C(=O)O[C@H]([C@H](C)C[C@@H]2CC[C@@H](O)[C@H](OC)C2)CC(=O)[C@H](C)/C=C(\C)[C@@H](O)[C@@H](OC)C(=O)[C@H](C)C[C@H](C)/C=C/C=C/C=C/1C [Sirolimus] (0.01 nM) | – | – | – | – | – | – | – | – | – | – | – | – | – | – | – | – | – | 99.1% | 97.6% | 95.9% | 91.1% | 87.1% | 89.9% | 104% | 92.4% | 98.3% | 105% | 100% | 94.7% | 106% | 93.6% | 103% | 103% | 94.1% | 95.5% | 106%
CN1CCN(c2nc(C3=C(c4c[nH]c5ccccc45)C(=O)NC3=O)c3ccccc3n2)CC1 [Sotrastaurin] (10 nM) | – | – | – | – | – | – | – | – | – | – | – | – | – | – | – | – | – | 93.5% | 94.6% | 91.3% | 93.1% | 123% | 95.8% | 96.8% | 96.1% | 105% | 96.6% | 100% | 101% | 99.6% | 105% | 94.2% | 96.1% | 93.6% | 93.6% | 124%
CC/C(=C(\c1ccccc1)c1ccc(OCCN(C)C)cc1)c1ccccc1 [Tamoxifen] (10 nM) | – | – | – | – | – | – | – | – | – | – | – | – | – | – | – | – | – | 103% | 91.8% | 100% | 108% | 83.8% | 98.8% | 104% | 114% | 103% | 103% | 104% | 97.3% | 112% | 100% | 100% | 98.7% | 99.2% | 108% | 100%
CN1CCc2c(c3ccccc3n2Cc2ccc(C(=O)NO)cc2)C1 [Tubastatin A] (1 nM) | – | – | – | – | – | – | – | – | – | – | – | – | – | – | – | – | – | 97.3% | 104% | 92.7% | 94.9% | 88.4% | 103% | 102% | 98% | 101% | 97.6% | 96.4% | 97.6% | 99.8% | 96.8% | 87.7% | 103% | 99.5% | 101% | 99.3%
CN1CCc2c(c3ccccc3n2Cc2ccc(C(=O)NO)cc2)C1 [Tubastatin A] (10 nM) | – | – | – | – | – | – | – | – | – | – | – | – | – | – | – | – | – | 92.7% | 96.3% | 96.1% | 107% | 67.6% | 107% | 100% | 95.2% | 92.8% | 99.6% | 99.4% | 102% | 101% | 92.4% | 95.2% | 94.1% | 102% | 102% | 93.8%
CCc1c(C(=O)C(N)=O)c2c(OCC(=O)O)cccc2n1Cc1ccccc1 [Varespladib] (1 nM) | – | – | – | – | – | – | – | – | – | – | – | – | – | – | – | – | – | 97.6% | 98.7% | 98.1% | 109% | 100% | 97.9% | 93.6% | 99% | 102% | 96.6% | 100% | 103% | 110% | 111% | 102% | 106% | 89.2% | 97.7% | 101%
CCc1c(C(=O)C(N)=O)c2c(OCC(=O)O)cccc2n1Cc1ccccc1 [Varespladib] (10 nM) | – | – | – | – | – | – | – | – | – | – | – | – | – | – | – | – | – | 97.2% | 92.9% | 96% | 104% | 107% | 97.3% | 102% | 102% | 95.9% | 97.7% | 97.1% | 104% | 105% | 99.7% | 96% | 95.4% | 98.9% | 102% | 99.1%
CCc1c(C(=O)C(N)=O)c2c(OCC(=O)O)cccc2n1Cc1ccccc1 [Varespladib] (1000 nM) | 99.9% | 102% | 106% | 100% | 110% | 114% | 102% | 108% | 99.3% | 105% | 114% | 97.7% | 103% | 103% | 109% | 105% | 97% | 92.6% | 94.2% | 98.2% | 104% | 106% | 97.6% | 101% | 106% | 96.4% | 100% | 100% | 102% | 104% | 103% | 94% | 99.8% | 100% | 95.8% | 100%
CC[C@@H]1C(=O)N(C)c2cnc(Nc3ccc(C(=O)N[C@H]4CC[C@H](N5CCN(CC6CC6)CC5)CC4)cc3OC)nc2N1C(C)C [Volasertib] (1 nM) | – | – | – | – | – | – | – | – | – | – | – | – | – | – | – | – | – | 89.7% | 102% | 100% | 105% | 111% | 102% | 100% | 99.9% | 113% | 99.2% | 92.5% | 103% | 102% | 97.6% | 100% | 77.1% | 90.1% | 98.3% | 98.5%
